Legend:
Format in all cases: biochemical
CDK9/T1 = CDK9/T1 (Homo sapiens, UniProt P50750); assay: ADP Glo Kinase assay CDK9/T1; conditions: CDK9T1; read-out: CDK inhibition, Ki (μM) CDK9T1
Procedure: (§1) Eurofins Pharma Discovery or Reaction Biology Corporation Kinase Profiler services were used to measure inhibition of CDKs and other kinases by radiometric assay. Inhibition of CDK4/D1, CDK6/D3 and CDK9/T1 were also determined in-house using ADP Glo Kinase assays (Promega Corporation, Madison, USA). Briefly, the kinase reaction for CDK4/D1 and CDK6/D3 was performed with kinase reaction buffer ([…] Tris base pH 7.5, 20 mM MgCl2, 0.4 mM DTT), 0.1 mg/ml BSA and RB-CTF substrate (retinoblastoma protein 1 C-terminal fraction). For CDK9/CyclinT1, the kinase reaction was performed with standard assay buffer and Kinase Dilution Buffer and RBER-IRStide substrate. Serial dilutions of 1:3 were prepared for test compounds for 10 concentrations (from 10 μM to 0.5 nM). The kinase reactions were started by addition of ATP, incubated for 40 min at 37° C. and then stopped by adding 10 μL of ADP Glo reagent. After incubation at room temperature in the dark for 40 min, 20 μL of kinase detection reagent was added per well and incubated for 40 min. Luminescence was measured using an EnVision Multilabel plate reader (PerkinElmer, Buckinghamshire, UK). Positive and negative controls were performed in the presence and absence of CDK kinases, respectively. Half-maximal inhibition (IC50) values were calculated using a 4-parameter logistic non-linear regression model with Graphpad prism (Version 6.0). Apparent inhibition constants (Ki) values were calculated from Km (ATP) and IC50 values for the respective kinases.

CDKs and other kinases [1] = molecular target: T1, CDKs and other kinases (Homo sapiens, UniProt P50613); assay: Radiometric kinase assay (Eurofins Pharma Discovery or Reaction Biology Corporation Kinase Profiler); conditions: CDK7H; for remaining activity at 10 µM: compound at 10 μM, read-out: residual activity (%) at 10 μM CDK7H; for Ki: read-out: CDK inhibition, Ki (μM) CDK7H
T1 construct: other: CDK7H; residual activity (%) at 10 μM CDK7H; compound at 10 μM
T1 sequence (P50613 whole entry): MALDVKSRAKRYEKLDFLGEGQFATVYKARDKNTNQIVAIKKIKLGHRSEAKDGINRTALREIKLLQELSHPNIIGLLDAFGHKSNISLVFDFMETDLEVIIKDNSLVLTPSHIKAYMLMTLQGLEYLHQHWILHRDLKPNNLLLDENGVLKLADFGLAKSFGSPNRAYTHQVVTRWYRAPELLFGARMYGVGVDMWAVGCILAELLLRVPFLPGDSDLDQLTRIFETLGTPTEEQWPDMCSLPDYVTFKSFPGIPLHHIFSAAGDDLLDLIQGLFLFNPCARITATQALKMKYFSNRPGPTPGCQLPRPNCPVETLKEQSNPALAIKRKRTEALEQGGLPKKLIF
Procedure: as §1

CDKs and other kinases [2] = molecular target: T2, CDKs and other kinases (Homo sapiens, UniProt P24941); assay: as above; conditions: CDK2A; for remaining activity at 10 µM: compound at 10 μM, read-out: residual activity (%) at 10 μM CDK2A; for Ki: read-out: CDK inhibition, Ki (μM) CDK2A
T2 construct: other: CDK2A; residual activity (%) at 10 μM CDK2A; compound at 10 μM
Procedure: as §1

CDK4/D1 = CDK4/D1 (Homo sapiens, UniProt P11802); assay: ADP Glo Kinase assay CDK4/D1; conditions: CDK4D1; compound at 10 μM; read-out: residual activity (%) at 10 μM CDK4D1
Chain of CDK4/D1 (P11802 whole entry): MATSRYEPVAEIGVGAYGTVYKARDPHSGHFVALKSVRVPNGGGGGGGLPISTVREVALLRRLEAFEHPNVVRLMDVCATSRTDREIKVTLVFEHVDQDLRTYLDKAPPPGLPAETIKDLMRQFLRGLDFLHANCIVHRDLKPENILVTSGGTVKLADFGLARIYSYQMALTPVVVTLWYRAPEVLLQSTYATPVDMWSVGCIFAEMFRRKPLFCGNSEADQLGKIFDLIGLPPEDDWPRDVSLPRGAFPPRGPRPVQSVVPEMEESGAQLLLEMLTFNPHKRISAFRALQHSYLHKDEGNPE
Chain of CDK4/D1 (P24385 whole entry partner): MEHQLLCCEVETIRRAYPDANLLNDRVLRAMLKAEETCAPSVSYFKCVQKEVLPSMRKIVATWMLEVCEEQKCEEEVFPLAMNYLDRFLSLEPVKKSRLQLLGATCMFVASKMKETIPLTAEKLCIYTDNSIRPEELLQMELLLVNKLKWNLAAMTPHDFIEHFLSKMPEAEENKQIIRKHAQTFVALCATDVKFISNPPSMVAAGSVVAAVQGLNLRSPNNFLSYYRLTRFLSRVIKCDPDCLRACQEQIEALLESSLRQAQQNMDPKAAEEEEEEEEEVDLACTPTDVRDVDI
Procedure: as §1

CDKs and other kinases [3] = molecular target: T3, CDKs and other kinases (Homo sapiens, UniProt P06493); assay: Radiometric kinase assay (Eurofins Pharma Discovery or Reaction Biology Corporation Kinase Profiler); conditions: CDK1B; for remaining activity at 10 µM: compound at 10 μM, read-out: residual activity (%) at 10 μM CDK1B; for Ki: read-out: CDK inhibition, Ki (μM) CDK1B
T3 construct: other: CDK1B; residual activity (%) at 10 μM CDK1B; compound at 10 μM
T3 sequence (P06493 whole entry): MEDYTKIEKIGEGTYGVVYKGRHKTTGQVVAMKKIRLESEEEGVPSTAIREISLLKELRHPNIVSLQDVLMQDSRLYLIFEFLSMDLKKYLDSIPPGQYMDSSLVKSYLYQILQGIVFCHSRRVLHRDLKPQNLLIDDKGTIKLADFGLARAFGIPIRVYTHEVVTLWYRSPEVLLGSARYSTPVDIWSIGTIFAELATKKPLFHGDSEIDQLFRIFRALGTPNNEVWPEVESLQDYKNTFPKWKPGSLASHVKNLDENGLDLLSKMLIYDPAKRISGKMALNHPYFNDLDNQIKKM
Procedure: as §1

Chain of CDK9/T1 (P50750 whole entry): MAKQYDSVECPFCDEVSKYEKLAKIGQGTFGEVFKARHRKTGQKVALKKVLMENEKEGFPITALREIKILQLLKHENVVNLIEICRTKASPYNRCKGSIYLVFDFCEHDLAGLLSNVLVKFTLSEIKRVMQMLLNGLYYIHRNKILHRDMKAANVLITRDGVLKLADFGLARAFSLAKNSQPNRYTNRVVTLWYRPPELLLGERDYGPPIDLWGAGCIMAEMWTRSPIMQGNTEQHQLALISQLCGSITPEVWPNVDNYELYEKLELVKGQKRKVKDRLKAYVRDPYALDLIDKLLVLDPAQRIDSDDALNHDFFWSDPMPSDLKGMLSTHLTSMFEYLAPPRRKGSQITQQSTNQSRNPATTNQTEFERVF
Chain of CDK9/T1 (O60563 whole entry partner): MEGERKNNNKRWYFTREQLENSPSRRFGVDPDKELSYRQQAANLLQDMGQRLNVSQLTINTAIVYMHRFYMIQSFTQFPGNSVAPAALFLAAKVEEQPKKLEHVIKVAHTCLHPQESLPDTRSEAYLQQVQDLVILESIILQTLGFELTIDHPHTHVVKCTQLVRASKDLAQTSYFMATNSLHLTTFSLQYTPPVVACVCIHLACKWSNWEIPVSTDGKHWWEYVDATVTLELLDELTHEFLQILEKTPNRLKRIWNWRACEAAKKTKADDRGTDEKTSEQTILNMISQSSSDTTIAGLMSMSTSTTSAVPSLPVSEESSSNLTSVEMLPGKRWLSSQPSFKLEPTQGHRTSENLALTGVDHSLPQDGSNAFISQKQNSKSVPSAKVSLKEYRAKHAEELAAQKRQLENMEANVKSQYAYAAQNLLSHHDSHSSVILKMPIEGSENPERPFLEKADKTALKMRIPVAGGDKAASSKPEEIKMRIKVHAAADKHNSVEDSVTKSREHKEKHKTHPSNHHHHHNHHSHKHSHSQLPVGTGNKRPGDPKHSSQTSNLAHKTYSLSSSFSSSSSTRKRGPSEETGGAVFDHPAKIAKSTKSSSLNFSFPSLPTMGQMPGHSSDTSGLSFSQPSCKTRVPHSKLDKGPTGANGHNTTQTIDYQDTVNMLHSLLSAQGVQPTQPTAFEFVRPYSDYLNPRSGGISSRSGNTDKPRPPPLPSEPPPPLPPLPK

Compound | Ki (CDK9/T1) [µM] | remaining activity at 10 µM (CDKs and other kinases [1]) [%] | remaining activity at 10 µM (CDKs and other kinases [2]) [%] | remaining activity at 10 µM (CDK4/D1) [%] | remaining activity at 10 µM (CDKs and other kinases [3]) [%] | Ki (CDKs and other kinases [1]) [µM] | Ki (CDKs and other kinases [2]) [µM] | Ki (CDKs and other kinases [3]) [µM]
COCCN[C@H]1CC[C@H](Nc2ncc(C)c(-c3cnc4ccc(-c5ccccc5)cn34)n2)CC1 [Compound 129, (1r,4r)-N^1-(2-Methoxyethyl)-N^4-(5-methyl-4-(6-phenylimidazo[1,2-a]pyridin-3-yl)pyrimidin-2-yl) cyclohexane-1,4-diamine] | 0.12 | 18 | 0 | 32 | 42 |  |  | 
Cc1cnc(N[C@H]2CC[C@H](N)CC2)nc1-c1cnc2ccc(Nc3ccc(F)nc3)cn12 [Compound 123, (1r,4r)-N^1-(4-(6-((6-Fluoropyridin-3-yl)amino)imidazo [1,2-a]pyridin-3-yl)-5-methylpyrimidin-2-yl)cyclohexane-1,4-diamine] | 0.011 |  |  | 31 |  | 0.89 | 0.3 | 1.53
Fc1cnc(N[C@H]2CC[C@H](NC3CCOCC3)CC2)nc1-c1cnc2ccc(-c3ccccc3)cn12 [Compound 161, (1r,4r)-N^1-(5-fluoro-4-(6-phenylimidazo[1,2-a]pyridin-3-yl)pyrimidin-2-yl)-N^4-(tetrahydro-2H-pyran-4-yl) cyclohexane-1,4-diamine] | 0.016 |  | 6 | 3 |  | 0.094 |  | 0.074
Cc1cnc(N[C@H]2CC[C@H](N)CC2)nc1-c1cnc2ccc(Nc3ccncc3)cn12 [Compound 134, (1r,4r)-N^1-(5-Methyl-4-(6-(pyridin-4-ylamino)imidazo [1,2-a]pyridin-3-yl)pyrimidin-2-yl)cyclohexane-1,4-diamine] | 0.12 | 28 | 22 | 11 | 43 |  |  | 
Cc1cnc(N[C@H]2CC[C@H](N3CCC3)CC2)nc1-c1cnc2ccc(Nc3cncc(F)c3)cn12 [Compound 139, 3-(2-(((1r,4r)-4-(Azetidin-1-yl)cyclohexyl)amino)-5-methylpyrimidin-4-yl)-N-(5-fluoropyridin-3-yl)imidazo [1,2-a]pyridin-6-amine] | 0.044 | 15 | 4 | 14 | 31 |  |  | 
Cc1cnc(N[C@H]2CC[C@H](N3CCC3)CC2)nc1-c1cnc2ccc(Nc3cncnc3)cn12 [Compound 141, 3-(2-(((1r,4r)-4-(Azetidin-1-yl)cyclohexyl)amino)-5-methylpyrimidin-4-yl)-N-(pyrimidin-5-yl)imidazo [1,2-a]pyridin-6-amine] | 0.011 | 30 |  | 15 |  |  | 0.064 | 0.532
Fc1cnc(NC2CCN(CC3CC3)CC2)nc1-c1cnc2ccc(-c3ccccc3)cn12 [Compound 145, N-(1-(Cyclopropylmethyl)piperidin-4-yl)-5-fluoro-4-(6-phenylimidazo[1,2-a]pyridin-3-yl)pyrimidin-2-amine] | 0.402 |  | 22 | 41 |  | 0.199 |  | 0.222
CN1CCC(N[C@H]2CC[C@H](Nc3ncc(F)c(-c4cnc5ccc(-c6ccccc6)cn45)n3)CC2)CC1 [Compound 160, (1r,4r)-N^1-(5-Fluoro-4-(6-phenylimidazo[1,2-a]pyridin-3-yl)pyrimidin-2-yl)-N^4-(1-methylpiperidin-4-yl) cyclohexane-1,4-diamine] | 0.014 |  | 7 | 0 | 3 | 0.099 |  | 
CCS(=O)(=O)N1CCC(Nc2ncc(F)c(-c3cnc4ccc(-c5ccccc5)cn34)n2)CC1 [Compound 163, N-(1-(Ethylsulfonyl)piperidin-4-yl)-5-fluoro-4-(6-phenylimidazo[1,2-a]pyridin-3-yl)pyrimidin-2-amine] | 4.57 | 5 | 0 | 61 |  |  |  | 

Now from value to compound:

Ki (CDK9/T1) [µM] | remaining activity at 10 µM (CDKs and other kinases [1]) [%] | remaining activity at 10 µM (CDKs and other kinases [2]) [%] | remaining activity at 10 µM (CDK4/D1) [%] | remaining activity at 10 µM (CDKs and other kinases [3]) [%] | Ki (CDKs and other kinases [1]) [µM] | Ki (CDKs and other kinases [2]) [µM] | Ki (CDKs and other kinases [3]) [µM] | Compound
1.28 | 33 | 8 | 54 |  |  |  |  | O[C@H]1CC[C@H](Nc2ncc(Cl)c(-c3cnc4ccc(-c5cccnc5)cn34)n2)CC1 [Compound 166, (1r,4r)-4-((5-Chloro-4-(6-(pyridin-3-yl)imidazo[1,2-a]pyridin-3-yl)pyrimidin-2-yl)amino)cyclohexan-1-ol]
> 5 | 18 | 7 | 5 |  |  |  |  | Fc1cnc(NC2CCNCC2)nc1-c1cnc2cc(-c3ccccc3)ccn12 [Compound 170, 5-Fluoro-4-(7-phenylimidazo[1,2-a]pyridin-3-yl)-N-(piperidin-4-yl)pyrimidin-2-amine]
> 5 | 65 | 35 | 47 |  |  |  |  | CS(=O)(=O)N1CCC(Nc2ncc(F)c(-c3cnc4cc(-c5ccccc5)ccn34)n2)CC1 [Compound 171, 5-Fluoro-N-(1-(methylsulfonyl)piperidin-4-yl)-4-(7-phenylimidazo[1,2-a]pyridin-3-yl)pyrimidin-2-amine]
0.93 | 24 | 51 | 61 |  |  |  |  | O[C@H]1CC[C@H](Nc2ncc(Cl)c(-c3cnc4ccc(-c5ccc(F)cc5)cn34)n2)CC1 [Compound 165, (1r,4r)-4-((5-Chloro-4-(6-(4-fluorophenyl)imidazo[1,2-a]pyridin-3-yl)pyrimidin-2-yl)amino)cyclohexan-1-ol]
0.005 | 21 | 2 | 6 |  |  |  |  | CNC(=O)N[C@H]1CC[C@H](Nc2ncc(C)c(-c3cnc4ccc(Nc5cncnc5)cn34)n2)CC1 [Compound 172, 1-Methyl-3-((1r,4r)-4-((5-methyl-4-(6-(pyrimidin-5-ylamino)imidazo[1,2-a]pyridin-3-yl)pyrimidin-2-yl)amino)cyclohexyl)urea]
0.181 | 55 | 11 | 22 |  |  |  |  | Cc1cnc(NC2CCC(N3CCNC(=O)C3)CC2)nc1-c1cnc2ccc(Nc3cncnc3)cn12 (stereo not shown) [Compound 168, 4-(4-((5-Methyl-4-(6-(pyrimidin-5-ylamino)imidazo [1,2-a]pyridin-3-yl)pyrimidin-2-yl)amino)cyclohexyl) piperazin-2-one]
0.49 | 49 | 4 | 66 |  |  |  |  | COc1ccc(-c2ccc3ncc(-c4nc(N[C@H]5CC[C@H](O)CC5)ncc4Cl)n3c2)cn1 [Compound 167, (1r,4r)-4-((5-Chloro-4-(6-(6-methoxypyridin-3-yl)imidazo[1,2-a]pyridin-3-yl)pyrimidin-2-yl)amino) cyclohexan-1-ol]
1.88 | 35 | 31 | 81 |  |  |  |  | CNC(=O)N[C@H]1CC[C@H](Nc2ncc(C)c(-c3cnc4ccc(-c5ccccc5)cn34)n2)CC1 [Compound 169, 1-Methyl-3-((1r,4r)-4-((5-methyl-4-(6-phenylimidazo [1,2-a]pyridin-3-yl)pyrimidin-2-yl)amino)cyclohexyl) urea]

Reference: patent US11111245B2, “Derivatives of N-cycloalkyl/heterocycloalkyl-4-(imidazo[1,2-a]pyridine)pyrimidin-2-amine as therapeutic agents” (Aucentra Therapeutics Pty Ltd, priority 2017, dated 2021)
